From patent US9029337B2, “Modulation of factor 7 expression” (Isis Pharmaceuticals, Inc., priority 2007, dated 2015)
e = 2'-O-(2-methoxyethyl) (MOE); d = 2'-deoxy (DNA)

Assays:
Format in all cases: in vivo, mouse
murine Factor 7 mRNA [1] = assay: Antisense inhibition of murine Factor 7 mRNA in liver of BALB/c mice, dose response
Experimental: (§1) BALB/c mice were treated with ISIS 403102 ([…], target site 11336, incorporated herein as SEQ ID NO: 161). BALB/c mice were injected subcutaneously with 5 mg/kg, 10 mg/kg, 25 mg/kg, or 50 mg/kg of ISIS 403102 twice a week for 3 weeks. A control group of mice was injected subcutaneously with PBS twice a week for 3 weeks. After the treatment period, whole liver was collected for RNA and protein analysis, and plasma was collected for clotting analysis (PT/aPTT).
RNA was extracted from liver tissue for real-time RT-PCR analysis of Factor 7. […] Results are presented as percent inhibition of Factor 7, relative to the control.

murine Factor 7 protein = assay: Plasma Factor 7 protein, Factor 7 chromogenic assay, BALB/c mice
Experimental: as §1
Plasma Factor 7 protein was measured using a Factor 7 chromogenic assay (Hyphen BioMed). […] Results are presented as percent inhibition of Factor 7, relative to control.

murine Factor 7 mRNA [2] = assay: Liver Factor 7 mRNA in the FeCl3 induced venous thrombosis model; settings: for % inhibition of Factor 7 mRNA: liver; for % inhibition of Factor 7 mRNA, relative to PBS control: BALB/c mice liver, two days after last dose
Experimental: (§2) Three groups of BALB/c mice were injected with 25 mg/kg, 37.5 mg/kg, or 50 mg/kg of ISIS 403102, administered subcutaneously twice a week for 3 weeks. Two control groups of BALB/c mice were treated with PBS, administered subcutaneously twice a week for 3 weeks. Thrombus formation was induced with FeCl3 in half of the mice while the rest of the mice were assayed for tail bleeding. Two days after receiving the last dose of ISIS 403102 or PBS, mice were anesthetized with 150 mg/kg ketamine mixed with 10 mg/kg xylazine administered by intraperitoneal injection. Thrombus formation was induced with FeCl3 in all groups of the VT mice except the first control group.
(§3) In mice undergoing FeCl3 treatment, thrombus formation was induced by applying a piece of filter paper (2×4 mm) pre-saturated with 10% FeCl3 solution directly on the vena cava. After 3 minutes of exposure, the filter paper was removed. Thirty minutes after the filter paper application, a fixed length of the vein containing the thrombus was dissected out for platelet analysis. Liver was collected for RNA analysis.
RNA was extracted from liver tissue for real-time RT-PCR analysis of Factor 7. Results are presented as percent inhibition of Factor 7, relative to PBS control.
ISIS 403102 and warfarin (Coumadin®) were evaluated in BALB/c mice. Four groups of BALB/c mice were treated with 5 mg/kg, 10 mg/kg, 20 mg/kg, or 40 mg/kg of ISIS 403102, administered subcutaneously twice a week for 3 weeks. Two days after receiving the last dose of ISIS 403102, mice were anesthetized with 150 mg/kg ketamine mixed with 10 mg/kg xylazine administered by intraperitoneal injection. A fifth group of BALB/c mice was treated with 3 mg/kg of warfarin, administered intraperioneally daily for 6 days. Four hours after the last dose of warfarin, mice were sacrificed. A control group of BALB/c mice were treated with PBS, administered subcutaneously twice a week for 3 weeks. Two days after the last dose of PBS, mice were anesthetized with 150 mg/kg ketamine mixed with 10 mg/kg xylazine administered by intraperitoneal injection. Thrombus formation was induced with FeCl3 in groups of mice except the first control group.

platelet factor-4 (PF-4) = assay: Thrombus formation by real-time RT-PCR quantification of PF-4 in the FeCl3 induced venous thrombosis model; settings: for PF-4 (percentage of PF-4 as compared to the PBS-treated control groups): BALB/c mice, vena cava, FeCl3
Experimental: as §2, §3
(§4) Real-time RT-PCR quantification of platelet factor-4 (PF-4) was used to quantify platelets in the vena cava as a measure of thrombus formation. Results are presented as a percentage of PF-4 in ISIS 403102, as compared to the two PBS-treated control groups. […] Therefore, antisense oligonucleotides are useful for inhibiting thrombus and clot formation.
ISIS 403102 and warfarin (Coumadin®) were evaluated in BALB/c mice. Four groups of BALB/c mice were treated with 5 mg/kg, 10 mg/kg, 20 mg/kg, or 40 mg/kg of ISIS 403102, administered subcutaneously twice a week for 3 weeks. Two days after receiving the last dose of ISIS 403102, mice were anesthetized with 150 mg/kg ketamine mixed with 10 mg/kg xylazine administered by intraperitoneal injection. Six additional groups of BALB/c mice was treated with 0.5 mg/kg, 1 mg/kg, 2 mg·kg, 3 mg/kg, 4 mg/kg, or 5 mg/kg of warfarin, administered intraperioneally daily for 6 days. Four hours after the last dose of warfarin, mice were sacrificed. A control group of BALB/c mice were treated with PBS, administered subcutaneously twice a week for 3 weeks. Two days after the last dose of PBS, mice were anesthetized with 150 mg/kg ketamine mixed with 10 mg/kg xylazine administered by intraperitoneal injection. Thrombus formation was induced with FeCl3 in groups of mice except the first control group.
as §4, with “403102 or warfarin treated mice,” for “403102,”, “Therefore, ISIS” for “Therefore,”

[3] = 10 mg/kg subcutaneously twice a week for 3 weeks
[4] = 25 mg/kg subcutaneously twice a week for 3 weeks
[5] = 50 mg/kg subcutaneously twice a week for 3 weeks
[6] = 5-50 mg/kg twice a week for 3 weeks
[7] = Example 14, 25, 37.5, 50 mg/kg twice a week for 3 weeks

Sequence: CCATAGAACAGCTTCACAGG (sugars from the 5' end e5 d10 e5, backbone and methylation of C not given here) [ISIS 403102]
- % inhibition of murine Factor 7 mRNA (murine Factor 7 mRNA [1]; 5 mg/kg subcutaneously twice a week for 3 weeks, relative to PBS control): 64%
- % inhibition of murine Factor 7 mRNA (murine Factor 7 mRNA [1]; [3]): 84%
- % inhibition of murine Factor 7 mRNA (murine Factor 7 mRNA [1]; [4]): 96%
- % inhibition of murine Factor 7 mRNA (murine Factor 7 mRNA [1]; [5]): 99%
- reduction of murine Factor 7 mRNA over the PBS control (murine Factor 7 mRNA [1]; [6]): dose-dependent reduction of murine Factor 7
- % inhibition of murine Factor 7 protein (murine Factor 7 protein; 5 mg/kg subcutaneously twice a week for 3 weeks): 71%
- % inhibition of murine Factor 7 protein (murine Factor 7 protein; [3]): 88%
- % inhibition of murine Factor 7 protein (murine Factor 7 protein; [4]): 99%
- % inhibition of murine Factor 7 protein (murine Factor 7 protein; [5]): 99%
- reduction of murine Factor 7 protein over the PBS control (murine Factor 7 protein; [6]): dose-dependent reduction of murine Factor 7 protein
- % inhibition of Factor 7 mRNA (murine Factor 7 mRNA [2]; Example 14, 25 mg/kg subcutaneously twice a week for 3 weeks): 24%
- % inhibition of Factor 7 mRNA (murine Factor 7 mRNA [2]; Example 14, 37.5 mg/kg subcutaneously twice a week for 3 weeks): 74%
- % inhibition of Factor 7 mRNA (murine Factor 7 mRNA [2]; Example 14, 50 mg/kg subcutaneously twice a week for 3 weeks): 69%
- reduction of Factor 7 mRNA in comparison to the PBS control (murine Factor 7 mRNA [2]; [7]): significant dose-dependent reduction of Factor 7 mRNA
- reduction of Factor 7 mRNA in comparison to the PBS control (murine Factor 7 mRNA [2]; Example 15, 5, 10, 20, 40 mg/kg subcutaneously twice a week for 3 weeks): significant dose-dependent reduction of Factor 7 mRNA
- % inhibition of Factor 7 mRNA, relative to PBS control (murine Factor 7 mRNA [2]; Example 15, 5 mg/kg s.c. twice a week for 3 weeks): 59%
- % inhibition of Factor 7 mRNA, relative to PBS control (murine Factor 7 mRNA [2]; Example 15, 10 mg/kg s.c. twice a week for 3 weeks): 84%
- % inhibition of Factor 7 mRNA, relative to PBS control (murine Factor 7 mRNA [2]; Example 15, 20 mg/kg s.c. twice a week for 3 weeks): 95%
- % inhibition of Factor 7 mRNA, relative to PBS control (murine Factor 7 mRNA [2]; Example 15, 40 mg/kg s.c. twice a week for 3 weeks): 99%
- PF-4 in comparison to the PBS control (platelet factor-4 (PF-4); [7]): reduction of PF-4
- PF-4 (percentage of PF-4 as compared to the PBS-treated control groups) (platelet factor-4 (PF-4); Example 14, 25 mg/kg s.c. twice a week for 3 weeks): 34%
- PF-4 (percentage of PF-4 as compared to the PBS-treated control groups) (platelet factor-4 (PF-4); Example 14, 37.5 mg/kg s.c. twice a week for 3 weeks): 24%
- PF-4 (percentage of PF-4 as compared to the PBS-treated control groups) (platelet factor-4 (PF-4); Example 14, 50 mg/kg s.c. twice a week for 3 weeks): 24%
- PF-4 (percentage of PF-4 as compared to the PBS-treated control groups) (platelet factor-4 (PF-4); Example 16, 5 mg/kg s.c. twice a week for 3 weeks): 69%
- PF-4 (percentage of PF-4 as compared to the PBS-treated control groups) (platelet factor-4 (PF-4); Example 16, 10 mg/kg s.c. twice a week for 3 weeks): 22%
- PF-4 (percentage of PF-4 as compared to the PBS-treated control groups) (platelet factor-4 (PF-4); Example 16, 20 mg/kg s.c. twice a week for 3 weeks): 41%
- PF-4 (percentage of PF-4 as compared to the PBS-treated control groups) (platelet factor-4 (PF-4); Example 16, 40 mg/kg s.c. twice a week for 3 weeks): 38%
- PF-4 in comparison to the PBS control (platelet factor-4 (PF-4); Example 16, dosages of 5 mg/kg and higher, twice a week for 3 weeks): dose-dependent reduction of PF-4
